Reference: patent US8022102B2, “Unsaturated tetracyclic tetrahydrofuran derivatives” (Janssen Pharmaceutica, NV, priority 2004, dated 2011)
Structures can show the parent of a compound that is named as a salt.

molecular target: T1, human cloned 5-HT2A receptor (Homo sapiens, UniProt P28223); experiment: In vitro binding affinity for 5-HT2A receptor (radioligand binding); conditions: human cloned 5-HT2A receptor, radioligand binding; read-out: h-5HT2A (converted)
T1 construct: expressed in transfected cells; host or cells: L929 cells
T1 sequence (P28223 whole entry): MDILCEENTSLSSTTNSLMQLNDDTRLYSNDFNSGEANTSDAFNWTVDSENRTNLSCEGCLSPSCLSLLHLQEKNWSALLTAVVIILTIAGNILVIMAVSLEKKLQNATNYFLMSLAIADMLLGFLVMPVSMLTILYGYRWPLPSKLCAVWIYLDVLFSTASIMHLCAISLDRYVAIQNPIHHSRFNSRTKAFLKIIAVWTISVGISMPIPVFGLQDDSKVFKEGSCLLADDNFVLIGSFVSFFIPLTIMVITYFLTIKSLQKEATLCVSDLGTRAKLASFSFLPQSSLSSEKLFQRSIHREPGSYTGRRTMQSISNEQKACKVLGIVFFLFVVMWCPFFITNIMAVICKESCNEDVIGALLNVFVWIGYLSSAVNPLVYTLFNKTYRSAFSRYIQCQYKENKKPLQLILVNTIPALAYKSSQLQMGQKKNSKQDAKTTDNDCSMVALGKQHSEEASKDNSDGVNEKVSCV
Procedure: During the incubation, the radioligands bind to the receptor. When equilibrium of binding is reached, the receptor bound radioactivity is separated from the non-bound radioactivity, and the receptor bound activity is counted. The interaction of the test compounds with the receptors is assessed in competition binding experiments. Various concentrations of the test compound are added to the incubation mixture containing the tissue preparation and the radioligand. Binding of the radioligand will be inhibited by the test compound in proportion to its binding affinity and its concentration. The affinities of the compounds for the 5-HT2 receptors were measured by means of radioligand binding studies conducted with: (a) human cloned 5-HT2A receptor, expressed in L929 cells using [^125I]R91150 as radioligand and (b) human cloned 5-HT2C receptor, expressed in CHO cells using [^3H]mesulergine as radioligand.

Point of comparison: `CN(C)CC1CC2=C(O1)c1ccsc1Cc1ccccc12` (stereo not shown) [Compound 131], IC50 0.0398 µM. Against it:
- CCCn1c2c(c3ccccc31)C1=C(CC(CN(C)C)O1)c1ccccc1S2 (stereo not shown) [Compound 94] — 3.2-fold higher, 0.126 µM
- C=CCn1c2c(c3ccccc31)C1=C(CC(CNC)O1)c1ccccc1S2 (stereo not shown) [Compound 95] — 5-fold lower, 0.00794 µM
- CN(CC(=O)O)C[C@H]1CC2=C(O1)c1cc(F)ccc1Cc1ccccc12 [Compound 107] — 4-fold lower, 0.01 µM
- CN(CCC(=O)O)C[C@H]1CC2=C(O1)c1cc(F)ccc1Cc1ccccc12 [Compound 108] — 3.2-fold lower, 0.0126 µM
- CN(C/C=C/C(=O)O)C[C@H]1CC2=C(O1)c1cc(F)ccc1Cc1ccccc12 [Compound 109] — 2.5-fold lower, 0.0158 µM
- CCOC(=O)CN(C)C[C@H]1CC2=C(O1)c1cc(F)ccc1Cc1ccccc12 [Compound 113] — 2.5-fold lower, 0.0158 µM
- CNC(=O)CN(C)C[C@H]1CC2=C(O1)c1cc(F)ccc1Cc1ccccc12 [Compound 116] — 4-fold lower, 0.01 µM
- CCS(=O)(=O)N(C)CC1CC2=C(O1)c1cc(F)ccc1Cc1ccccc12 (stereo not shown) [Compound 127] — 5-fold higher, 0.2 µM
- CNCC1CC2=C(O1)c1ccc(F)cc1Cc1ccccc12 (stereo not shown) [Compound 135] — 7.9-fold lower, 0.00501 µM
- CNCC1CC2=C(O1)c1c(F)cccc1Cc1ccccc12 (stereo not shown) [Compound 136] — 1.6-fold lower, 0.0251 µM
- CN(C)CCC1CC2=C(O1)c1cc(F)ccc1Cc1ccccc12 (stereo not shown) [Compound 137] — 3.2-fold lower, 0.0126 µM

molecular target: T2, NET (Rattus norvegicus, UniProt Q9WTR4); experiment: In vitro determination of NET reuptake inhibition ([3H]Nixosetine binding, rat brain cortex); conditions: rat brain cortex, [3H]Nixosetine; read-out: NET Reuptake Inhibition (converted)
T2 construct: Cortex from rat brain was collected and homogenised; from tissue; host or cells: rat brain cortex
T2 sequence (Q9WTR4 1-597): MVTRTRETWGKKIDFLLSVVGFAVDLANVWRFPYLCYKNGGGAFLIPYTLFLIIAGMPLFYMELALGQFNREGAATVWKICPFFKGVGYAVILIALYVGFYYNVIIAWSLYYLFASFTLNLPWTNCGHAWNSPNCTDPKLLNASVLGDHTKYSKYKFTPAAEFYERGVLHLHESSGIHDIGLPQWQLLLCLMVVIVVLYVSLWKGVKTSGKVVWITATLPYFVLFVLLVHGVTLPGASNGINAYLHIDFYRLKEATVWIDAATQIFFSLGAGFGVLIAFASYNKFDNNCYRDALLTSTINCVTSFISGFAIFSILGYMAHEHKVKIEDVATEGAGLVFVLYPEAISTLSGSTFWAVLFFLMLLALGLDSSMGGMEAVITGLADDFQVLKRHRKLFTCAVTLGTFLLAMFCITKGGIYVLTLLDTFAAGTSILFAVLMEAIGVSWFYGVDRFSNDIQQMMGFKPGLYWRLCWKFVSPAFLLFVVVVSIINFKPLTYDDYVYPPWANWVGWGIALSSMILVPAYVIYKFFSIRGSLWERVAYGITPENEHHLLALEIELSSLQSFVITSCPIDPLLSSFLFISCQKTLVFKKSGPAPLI
Procedure: Cortex from rat brain was collected and homogenised using an Ultra-Turrax T25 and a Dual homogeniser in ice-cold homogenising buffer containing Tris, NaCl and KCl (50 mM, 120 mM and 5 mM, respectively, pH 7.4) prior to dilution to an appropriate protein concentration optimised for specific and non-specific binding. […] Membrane-bound activity was detected by filtration through a Packard Filtermate harvester onto GF/B Unifilterplates, washed with ice-cold Tris-HCl buffer, containing NaCl and KCl (50 mM, 120 mM and 4 mM; pH 7.4; 6×0.5 ml). Filters were allowed to dry for 24 h before adding scintillation fluid. Scintillation fluid was allowed to saturate filters for 24 h before counting in a Topcount scintillation counter. Percentage specific bound and competition binding curves were calculated using S-Plus software (Insightful).

Point of comparison: `C=CCn1c2c(c3ccccc31)C1=C(CC(CNC)O1)c1ccccc1S2` (stereo not shown) [Compound 95], IC50 0.158 µM. Against it:
- CCCn1c2c(c3ccccc31)C1=C(CC(CN(C)C)O1)c1ccccc1S2 (stereo not shown) [Compound 94] — 8-fold higher, 1.26 µM
- CN(CCC(=O)O)C[C@H]1CC2=C(O1)c1cc(F)ccc1Cc1ccccc12 [Compound 108] — 2.5-fold higher, 0.398 µM
- CN(C/C=C/C(=O)O)C[C@H]1CC2=C(O1)c1cc(F)ccc1Cc1ccccc12 [Compound 109] — 2.5-fold higher, 0.398 µM
- CCOC(=O)CN(C)C[C@H]1CC2=C(O1)c1cc(F)ccc1Cc1ccccc12 [Compound 113] — 25-fold higher, 3.98 µM
- CNC(=O)CN(C)C[C@H]1CC2=C(O1)c1cc(F)ccc1Cc1ccccc12 [Compound 116] — 16-fold higher, 2.51 µM
- CCS(=O)(=O)N(C)CC1CC2=C(O1)c1cc(F)ccc1Cc1ccccc12 (stereo not shown) [Compound 127] — higher, > 10 µM
- CN(C)CC1CC2=C(O1)c1ccsc1Cc1ccccc12 (stereo not shown) [Compound 131] — 5-fold higher, 0.794 µM
- CNCC1CC2=C(O1)c1ccc(F)cc1Cc1ccccc12 (stereo not shown) [Compound 135] — 4-fold higher, 0.631 µM
- CNCC1CC2=C(O1)c1c(F)cccc1Cc1ccccc12 (stereo not shown) [Compound 136] — 1.6-fold lower, 0.1 µM
- CN(C)CCC1CC2=C(O1)c1cc(F)ccc1Cc1ccccc12 (stereo not shown) [Compound 137] — the same, 0.158 µM

molecular target: T3, human cloned 5-HT2C receptor (Homo sapiens, UniProt P28335); experiment: In vitro binding affinity for 5-HT2C receptor (radioligand binding); conditions: human cloned 5-HT2C receptor, radioligand binding; read-out: h-5HT2C (converted)
T3 construct: expressed in transfected cells; host or cells: CHO cells
T3 sequence (P28335 33-458): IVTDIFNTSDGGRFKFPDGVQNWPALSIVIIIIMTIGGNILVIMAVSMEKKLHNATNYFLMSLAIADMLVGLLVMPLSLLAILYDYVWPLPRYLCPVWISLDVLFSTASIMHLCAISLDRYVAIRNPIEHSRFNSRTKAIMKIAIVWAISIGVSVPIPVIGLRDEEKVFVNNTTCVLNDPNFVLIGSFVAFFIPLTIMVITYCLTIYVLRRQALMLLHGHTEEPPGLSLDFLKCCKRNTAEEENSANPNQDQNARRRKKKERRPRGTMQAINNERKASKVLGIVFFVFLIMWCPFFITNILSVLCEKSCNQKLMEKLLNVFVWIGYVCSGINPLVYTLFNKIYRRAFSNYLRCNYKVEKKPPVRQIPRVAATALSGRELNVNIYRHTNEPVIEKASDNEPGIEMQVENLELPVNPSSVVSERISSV
Procedure: During the incubation, the radioligands bind to the receptor. When equilibrium of binding is reached, the receptor bound radioactivity is separated from the non-bound radioactivity, and the receptor bound activity is counted. The interaction of the test compounds with the receptors is assessed in competition binding experiments. Various concentrations of the test compound are added to the incubation mixture containing the tissue preparation and the radioligand. Binding of the radioligand will be inhibited by the test compound in proportion to its binding affinity and its concentration.

Point of comparison: `CNC(=O)CN(C)C[C@H]1CC2=C(O1)c1cc(F)ccc1Cc1ccccc12` [Compound 116], IC50 0.00794 µM. Against it:
- CCCn1c2c(c3ccccc31)C1=C(CC(CN(C)C)O1)c1ccccc1S2 (stereo not shown) [Compound 94] — 5-fold higher, 0.0398 µM
- C=CCn1c2c(c3ccccc31)C1=C(CC(CNC)O1)c1ccccc1S2 (stereo not shown) [Compound 95] — within 1.5-fold, 0.00631 µM
- CN(CC(=O)O)C[C@H]1CC2=C(O1)c1cc(F)ccc1Cc1ccccc12 [Compound 107] — the same, 0.00794 µM
- CN(CCC(=O)O)C[C@H]1CC2=C(O1)c1cc(F)ccc1Cc1ccccc12 [Compound 108] — 1.6-fold higher, 0.0126 µM
- CN(C/C=C/C(=O)O)C[C@H]1CC2=C(O1)c1cc(F)ccc1Cc1ccccc12 [Compound 109] — 1.6-fold higher, 0.0126 µM
- CCOC(=O)CN(C)C[C@H]1CC2=C(O1)c1cc(F)ccc1Cc1ccccc12 [Compound 113] — within 1.5-fold, 0.01 µM
- CCS(=O)(=O)N(C)CC1CC2=C(O1)c1cc(F)ccc1Cc1ccccc12 (stereo not shown) [Compound 127] — within 1.5-fold, 0.01 µM
- CN(C)CC1CC2=C(O1)c1ccsc1Cc1ccccc12 (stereo not shown) [Compound 131] — the same, 0.00794 µM
- CNCC1CC2=C(O1)c1ccc(F)cc1Cc1ccccc12 (stereo not shown) [Compound 135] — 3.2-fold lower, 0.00251 µM
- CNCC1CC2=C(O1)c1c(F)cccc1Cc1ccccc12 (stereo not shown) [Compound 136] — 4-fold lower, 0.002 µM
- CN(C)CCC1CC2=C(O1)c1cc(F)ccc1Cc1ccccc12 (stereo not shown) [Compound 137] — 2.5-fold lower, 0.00316 µM

molecular target: T4, human Dopamine D2L receptor (Homo sapiens, UniProt P14416); experiment: In vitro binding affinity for human D2L receptor ([3H]Spiperone); conditions: human D2L receptor-transfected CHO cell membranes, [3H]Spiperone; read-out: h-D2L (converted)
T4 construct: expressed in transfected cells; host or cells: CHO cells
T4 sequence (P14416 whole entry): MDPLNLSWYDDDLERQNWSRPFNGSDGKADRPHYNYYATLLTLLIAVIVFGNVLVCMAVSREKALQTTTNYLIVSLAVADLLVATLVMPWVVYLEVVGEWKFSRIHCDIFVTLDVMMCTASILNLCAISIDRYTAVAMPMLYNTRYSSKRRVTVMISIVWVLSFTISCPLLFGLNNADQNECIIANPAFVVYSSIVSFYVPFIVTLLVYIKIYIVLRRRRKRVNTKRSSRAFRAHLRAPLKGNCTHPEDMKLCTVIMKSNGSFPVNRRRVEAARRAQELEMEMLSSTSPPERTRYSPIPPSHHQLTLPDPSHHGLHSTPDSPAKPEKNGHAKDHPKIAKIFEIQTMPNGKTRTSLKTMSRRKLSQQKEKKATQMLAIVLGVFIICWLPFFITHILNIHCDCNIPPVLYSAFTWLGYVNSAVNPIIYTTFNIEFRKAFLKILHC
Procedure: Frozen membranes of human Dopamine D2L receptor-transfected CHO cells were thawed, briefly homogenised using an Ultra-Turrax T25 homogeniser and diluted in Tris-HCl assay buffer containing NaCl, CaCl2, MgCl2, KCl (50, 120, 2, 1, and 5 mM respectively, adjusted to pH 7.7 with HCl) to an appropriate protein concentration optimised for specific and non-specific binding. Radioligand [^3H]Spiperone (NEN, specific activity ˜70 Ci/mmol) was diluted in assay buffer at a concentration of 2 nmol/L. Prepared radioligand (50 μl), along with 50 μl of either the 10% DMSO control, Butaclamol (10^−6 mol/l final concentration), or compound of interest, was then incubated (30 min, 37° C.) with 400 μl of the prepared membrane solution. Membrane-bound activity was filtered through a Packard Filtermate harvester onto GF/B Unifilterplates and washed with ice-cold Tris-HCl buffer (50 mM; pH 7.7; 6×0.5 ml). Filters were allowed to dry before adding scintillation fluid and counting in a Topcount scintillation counter. Percentage specific bound and competition binding curves were calculated using S-Plus software (Insightful).

Point of comparison: `C=CCn1c2c(c3ccccc31)C1=C(CC(CNC)O1)c1ccccc1S2` (stereo not shown) [Compound 95], IC50 0.398 µM. Against it:
- CCCn1c2c(c3ccccc31)C1=C(CC(CN(C)C)O1)c1ccccc1S2 (stereo not shown) [Compound 94] — 2.5-fold higher, 1 µM
- CN(CC(=O)O)C[C@H]1CC2=C(O1)c1cc(F)ccc1Cc1ccccc12 [Compound 107] — 10-fold higher, 3.98 µM
- CN(CCC(=O)O)C[C@H]1CC2=C(O1)c1cc(F)ccc1Cc1ccccc12 [Compound 108] — 10-fold higher, 3.98 µM
- CN(C/C=C/C(=O)O)C[C@H]1CC2=C(O1)c1cc(F)ccc1Cc1ccccc12 [Compound 109] — 7.9-fold higher, 3.16 µM
- CCOC(=O)CN(C)C[C@H]1CC2=C(O1)c1cc(F)ccc1Cc1ccccc12 [Compound 113] — 4-fold higher, 1.58 µM
- CNC(=O)CN(C)C[C@H]1CC2=C(O1)c1cc(F)ccc1Cc1ccccc12 [Compound 116] — 7.9-fold higher, 3.16 µM
- CCS(=O)(=O)N(C)CC1CC2=C(O1)c1cc(F)ccc1Cc1ccccc12 (stereo not shown) [Compound 127] — higher, > 10 µM
- CN(C)CC1CC2=C(O1)c1ccsc1Cc1ccccc12 (stereo not shown) [Compound 131] — 2-fold lower, 0.2 µM
- CNCC1CC2=C(O1)c1ccc(F)cc1Cc1ccccc12 (stereo not shown) [Compound 135] — 7.9-fold higher, 3.16 µM
- CNCC1CC2=C(O1)c1c(F)cccc1Cc1ccccc12 (stereo not shown) [Compound 136] — 4-fold higher, 1.58 µM
- CN(C)CCC1CC2=C(O1)c1cc(F)ccc1Cc1ccccc12 (stereo not shown) [Compound 137] — 4-fold higher, 1.58 µM

test system: not given; experiment: not given; conditions: not given

Point of comparison: `CN(CC(=O)O)C[C@H]1CC2=C(O1)c1cc(F)ccc1Cc1ccccc12` [Compound 107], melting point 194.7 °C. Against it:
- CCNCC1CC2=C(O1)c1cc(F)ccc1Sc1ccccc12 (stereo not shown) (as salt: oxalate) [Compound 18] — higher, 240.7 °C
- CN(C)CC1CC2=C(O1)c1ccccc1Cc1ccccc12 (stereo not shown) (as salt: oxalate) [Compound 22] — lower, 172.8 °C
- CN(CC(=O)NS(C)(=O)=O)C[C@H]1CC2=C(O1)c1cc(F)ccc1Cc1ccccc12 [Compound 120] — lower, 88.5 °C
- CN(C)CC1CC2=C(O1)c1ccsc1Cc1ccccc12 (stereo not shown) [Compound 131] — lower, 174 to 176 °C
